Data: ChEMBL document CHEMBL1201862, “PubChem BioAssay data set” (2004)
One block for each molecule: values may come before it. Activity calls are given as the source filed them.

Columns and labels:
[1] = target: Acyl-homoserine lactone acylase PvdQ (Pseudomonas aeruginosa (strain LESB58), UniProt Q9I194); test: PvdQ acylase enzyme activity blockers – biochemical, fluorescence, plate reader and imaging, cherry-picks, dose response (AID 493231)
Cytochrome P450 3A4 = Cytochrome P450 3A4 (Homo sapiens, UniProt P08684); settings: Potency;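 further: confirmatory qHTS run detecting inhibitors and substrates of CYP3A4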
[2] = target: T1, Polyadenylate-binding protein 1 (Homo sapiens, UniProt P11940); test: MLLE domain peptide-binding blockers, IC50 – biochemical, fluorescence polarization, FITC-PAM2 peptide, dose response (AID 602259); type: functional; settings: read-out: IC50_Mean
Protein Rev = Protein Rev (Human immunodeficiency virus type 1 group M subtype B (isolate HXB2)(HIV-1), UniProt P04618); test: blockers of HIV Rev/RRE RNA complex – biochemical, fluorescence polarization, HIV-1, dose response (AID 434976); set-up: species or system Human immunodeficiency virus 1
[3] = target: T1, Polyadenylate-binding protein 1; test: MLLE binding blockers, Cy5 peptide tracer – biochemical, fluorescence polarization, Cy5-PAM2 peptide, secondary, miRNA deadenylation inhibitor project, dose response (AID 602260); type: functional; settings: read-out: IC50_Mean
[4] = target: Female germline-specific tumor suppressor gld-1 (Caenorhabditis elegans, UniProt Q17339); test: blockers of GLD-1/TGE RNA complex formation – biochemical, fluorescence polarization, C. elegans, dose response (AID 2802);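 further: fluorescence polarization of labeled TGE RNA bound by purified gld-1 protein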
[5] = target: T2, Voltage-gated N-type calcium channel alpha-1B subunit/Amyloid beta A4 precursor protein-binding family A member 1 (Homo sapiens, UniProt Q00975+Q02410); test: disruptors of Mint-PDZ/N-type channel peptide interaction – biochemical, HTRF, set 2, SAR follow-up (AID 434980); type: functional
Hexokinase = Hexokinase (Trypanosoma brucei, UniProt Q38C41); test: Confirmation assay for inhibitors of Trypanosoma brucei hexokinase 1-Analogue-first series. [Related pubchem assays (depositor defined):AID1430, AID1632, AID2516, AID2560, AID2579, AID2600, AID449725, AID492951]; type: functional
[6] = target: T3, Tyrosine-protein phosphatase non-receptor type 7 (Homo sapiens, UniProt P35236); test: inhibition of hematopoietic tyrosine phosphatase HePTP – biochemical, set 2, SAR follow-up (AID 449736); type: functional
T3 sequence (P35236 whole entry): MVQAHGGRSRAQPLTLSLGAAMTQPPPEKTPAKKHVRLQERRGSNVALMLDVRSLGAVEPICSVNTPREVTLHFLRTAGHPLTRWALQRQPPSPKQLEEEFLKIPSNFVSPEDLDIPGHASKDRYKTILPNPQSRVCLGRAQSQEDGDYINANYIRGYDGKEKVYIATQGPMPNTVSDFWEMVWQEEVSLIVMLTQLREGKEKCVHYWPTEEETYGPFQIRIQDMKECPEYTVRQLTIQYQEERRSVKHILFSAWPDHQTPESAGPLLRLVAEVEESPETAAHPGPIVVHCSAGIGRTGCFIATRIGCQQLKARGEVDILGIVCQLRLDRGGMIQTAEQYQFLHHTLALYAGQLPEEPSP

[7] = target: T4, Alkaline phosphatase, tissue-nonspecific isozyme (Homo sapiens, UniProt P05186)
T4 sequence (P05186 whole entry): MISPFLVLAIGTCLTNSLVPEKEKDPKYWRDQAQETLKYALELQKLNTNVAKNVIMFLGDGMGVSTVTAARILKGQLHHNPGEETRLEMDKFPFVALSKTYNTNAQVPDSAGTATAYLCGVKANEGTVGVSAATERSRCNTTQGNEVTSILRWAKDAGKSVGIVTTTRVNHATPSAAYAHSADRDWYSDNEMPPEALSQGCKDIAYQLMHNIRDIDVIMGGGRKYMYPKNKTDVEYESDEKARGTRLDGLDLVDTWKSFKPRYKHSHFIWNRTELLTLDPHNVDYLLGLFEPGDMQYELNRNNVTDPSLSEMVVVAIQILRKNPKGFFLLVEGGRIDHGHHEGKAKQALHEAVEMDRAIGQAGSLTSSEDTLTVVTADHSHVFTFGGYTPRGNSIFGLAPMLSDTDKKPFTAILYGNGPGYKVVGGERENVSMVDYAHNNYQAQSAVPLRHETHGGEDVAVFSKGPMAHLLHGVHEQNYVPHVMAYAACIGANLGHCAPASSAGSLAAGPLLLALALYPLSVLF

Large T antigen = Large T antigen (Simian virus 40, UniProt P03070); type: functional, Betapolyomavirus macacae;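 further: Confirmatory-stage PubChem screen for compounds that inhibit SV40 T antigen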
[8] = target: FAD-linked sulfhydryl oxidase ALR (Homo sapiens, UniProt P55789); test: ALR-catalysed DTT oxidation blockers – biochemical, H2O2 detection, luminescence, cherry-pick, dose response (AID 493248)
[9] = target: Induced myeloid leukemia cell differentiation protein Mcl-1 (Homo sapiens, UniProt Q07820); type: functional
[10] = target: T5, Carboxy-terminal domain RNA polymerase II polypeptide A small phosphatase 1 (Homo sapiens, UniProt Q9GZU7); test: CTDSP1 inhibitors, concentration-response, biochemical, absorbance readout, ultra-high-throughput screen actives (AID 540297); type: functional
T5 sequence (Q9GZU7 whole entry): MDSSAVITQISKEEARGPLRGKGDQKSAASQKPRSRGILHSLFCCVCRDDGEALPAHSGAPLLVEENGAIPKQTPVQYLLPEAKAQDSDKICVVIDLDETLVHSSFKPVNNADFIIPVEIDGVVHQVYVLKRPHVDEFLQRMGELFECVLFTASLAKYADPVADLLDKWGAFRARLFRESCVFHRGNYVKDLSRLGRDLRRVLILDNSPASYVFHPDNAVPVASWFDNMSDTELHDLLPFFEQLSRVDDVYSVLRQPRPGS

[11] = target: T2, Voltage-gated N-type calcium channel alpha-1B subunit/Amyloid beta A4 precursor protein-binding family A member 1; type: protein assay
[12] = target: T2, Voltage-gated N-type calcium channel alpha-1B subunit/Amyloid beta A4 precursor protein-binding family A member 1; type: protein assay; remark: listed apart in the source

T2 sequence (Q00975 whole entry): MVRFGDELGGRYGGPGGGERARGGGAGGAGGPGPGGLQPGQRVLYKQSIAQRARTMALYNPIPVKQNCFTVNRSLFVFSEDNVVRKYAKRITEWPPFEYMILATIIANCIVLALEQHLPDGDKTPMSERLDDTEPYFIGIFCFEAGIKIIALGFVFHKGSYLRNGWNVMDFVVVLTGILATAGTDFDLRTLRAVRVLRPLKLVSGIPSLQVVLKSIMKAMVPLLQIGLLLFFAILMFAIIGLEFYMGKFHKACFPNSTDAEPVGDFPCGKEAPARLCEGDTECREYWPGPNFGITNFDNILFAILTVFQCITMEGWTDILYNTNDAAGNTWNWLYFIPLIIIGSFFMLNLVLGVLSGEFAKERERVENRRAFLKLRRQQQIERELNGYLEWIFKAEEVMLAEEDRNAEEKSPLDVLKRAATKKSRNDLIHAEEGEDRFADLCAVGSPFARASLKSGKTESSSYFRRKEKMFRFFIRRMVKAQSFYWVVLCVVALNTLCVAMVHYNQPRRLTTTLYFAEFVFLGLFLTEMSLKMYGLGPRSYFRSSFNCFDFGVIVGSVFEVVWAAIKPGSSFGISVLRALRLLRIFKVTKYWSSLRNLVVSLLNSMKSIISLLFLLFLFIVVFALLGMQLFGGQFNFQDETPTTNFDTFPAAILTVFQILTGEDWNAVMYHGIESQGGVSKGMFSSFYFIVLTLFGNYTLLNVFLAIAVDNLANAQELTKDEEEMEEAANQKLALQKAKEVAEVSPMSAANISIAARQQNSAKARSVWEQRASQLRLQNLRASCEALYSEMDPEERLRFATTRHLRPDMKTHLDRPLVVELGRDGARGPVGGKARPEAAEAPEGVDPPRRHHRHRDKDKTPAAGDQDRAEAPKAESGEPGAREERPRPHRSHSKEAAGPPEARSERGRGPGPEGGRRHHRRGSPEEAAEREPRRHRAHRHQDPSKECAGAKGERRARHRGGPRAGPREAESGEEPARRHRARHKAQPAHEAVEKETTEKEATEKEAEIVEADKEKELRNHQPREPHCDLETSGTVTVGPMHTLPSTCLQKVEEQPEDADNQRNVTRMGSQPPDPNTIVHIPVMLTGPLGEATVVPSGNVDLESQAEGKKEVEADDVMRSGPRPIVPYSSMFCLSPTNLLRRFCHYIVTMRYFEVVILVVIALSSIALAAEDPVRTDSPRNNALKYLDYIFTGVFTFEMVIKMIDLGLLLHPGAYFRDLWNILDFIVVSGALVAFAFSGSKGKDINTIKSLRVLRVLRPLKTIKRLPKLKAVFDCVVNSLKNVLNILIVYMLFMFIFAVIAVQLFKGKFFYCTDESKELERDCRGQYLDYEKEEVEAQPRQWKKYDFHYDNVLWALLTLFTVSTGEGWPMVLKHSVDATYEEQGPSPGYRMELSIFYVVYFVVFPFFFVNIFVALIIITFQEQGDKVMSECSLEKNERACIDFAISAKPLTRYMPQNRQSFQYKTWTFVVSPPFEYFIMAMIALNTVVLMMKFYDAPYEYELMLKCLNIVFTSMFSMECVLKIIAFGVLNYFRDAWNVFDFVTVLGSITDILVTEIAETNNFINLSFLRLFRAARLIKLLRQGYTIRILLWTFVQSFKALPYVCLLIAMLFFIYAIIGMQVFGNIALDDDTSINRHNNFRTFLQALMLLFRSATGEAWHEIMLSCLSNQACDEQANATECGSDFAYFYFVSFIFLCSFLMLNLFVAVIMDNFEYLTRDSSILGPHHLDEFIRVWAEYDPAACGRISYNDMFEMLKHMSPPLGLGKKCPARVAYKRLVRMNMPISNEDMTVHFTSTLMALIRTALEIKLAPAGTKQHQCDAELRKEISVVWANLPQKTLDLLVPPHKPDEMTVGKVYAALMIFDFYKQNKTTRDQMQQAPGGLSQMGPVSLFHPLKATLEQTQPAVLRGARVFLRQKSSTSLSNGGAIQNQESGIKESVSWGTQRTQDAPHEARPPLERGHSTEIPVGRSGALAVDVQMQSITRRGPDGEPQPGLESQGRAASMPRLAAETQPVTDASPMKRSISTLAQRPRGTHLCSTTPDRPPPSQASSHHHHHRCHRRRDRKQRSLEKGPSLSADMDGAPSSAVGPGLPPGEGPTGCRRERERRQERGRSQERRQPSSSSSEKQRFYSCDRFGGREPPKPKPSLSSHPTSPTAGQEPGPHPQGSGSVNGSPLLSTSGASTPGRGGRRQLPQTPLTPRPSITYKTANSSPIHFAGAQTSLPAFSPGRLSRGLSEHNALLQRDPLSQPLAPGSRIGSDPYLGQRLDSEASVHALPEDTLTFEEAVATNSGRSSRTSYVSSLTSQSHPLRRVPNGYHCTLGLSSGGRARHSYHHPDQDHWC
T2 sequence (Q02410 whole entry): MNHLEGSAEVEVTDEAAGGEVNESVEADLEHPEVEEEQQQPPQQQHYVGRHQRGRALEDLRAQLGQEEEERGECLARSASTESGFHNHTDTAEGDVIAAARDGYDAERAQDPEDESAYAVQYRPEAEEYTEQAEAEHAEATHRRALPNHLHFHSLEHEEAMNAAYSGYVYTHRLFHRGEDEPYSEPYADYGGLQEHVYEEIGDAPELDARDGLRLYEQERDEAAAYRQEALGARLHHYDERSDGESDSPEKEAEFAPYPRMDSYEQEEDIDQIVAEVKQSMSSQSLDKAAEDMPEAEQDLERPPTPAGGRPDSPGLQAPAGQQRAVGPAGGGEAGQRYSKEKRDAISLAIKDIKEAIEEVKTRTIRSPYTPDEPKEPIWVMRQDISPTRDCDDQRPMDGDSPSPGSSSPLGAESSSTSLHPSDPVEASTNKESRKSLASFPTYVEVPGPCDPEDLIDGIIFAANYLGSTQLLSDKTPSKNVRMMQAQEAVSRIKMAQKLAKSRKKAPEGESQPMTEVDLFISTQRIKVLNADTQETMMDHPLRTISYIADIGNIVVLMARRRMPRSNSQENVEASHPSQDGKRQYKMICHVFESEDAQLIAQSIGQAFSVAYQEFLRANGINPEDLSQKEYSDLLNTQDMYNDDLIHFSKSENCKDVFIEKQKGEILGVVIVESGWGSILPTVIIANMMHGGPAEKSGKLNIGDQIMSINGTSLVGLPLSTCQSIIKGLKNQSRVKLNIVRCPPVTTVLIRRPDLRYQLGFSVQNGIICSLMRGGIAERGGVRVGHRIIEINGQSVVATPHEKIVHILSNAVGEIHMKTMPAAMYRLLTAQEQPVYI
Sequence of Acyl-homoserine lactone acylase PvdQ (Q9I194 24-193 limits assumed): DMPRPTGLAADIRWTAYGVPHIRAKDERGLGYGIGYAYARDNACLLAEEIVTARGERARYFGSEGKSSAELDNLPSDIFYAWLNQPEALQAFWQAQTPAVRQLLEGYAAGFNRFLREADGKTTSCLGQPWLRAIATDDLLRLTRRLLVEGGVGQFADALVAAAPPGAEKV
Sequence of Acyl-homoserine lactone acylase PvdQ (Q9I194 217-762 limits assumed): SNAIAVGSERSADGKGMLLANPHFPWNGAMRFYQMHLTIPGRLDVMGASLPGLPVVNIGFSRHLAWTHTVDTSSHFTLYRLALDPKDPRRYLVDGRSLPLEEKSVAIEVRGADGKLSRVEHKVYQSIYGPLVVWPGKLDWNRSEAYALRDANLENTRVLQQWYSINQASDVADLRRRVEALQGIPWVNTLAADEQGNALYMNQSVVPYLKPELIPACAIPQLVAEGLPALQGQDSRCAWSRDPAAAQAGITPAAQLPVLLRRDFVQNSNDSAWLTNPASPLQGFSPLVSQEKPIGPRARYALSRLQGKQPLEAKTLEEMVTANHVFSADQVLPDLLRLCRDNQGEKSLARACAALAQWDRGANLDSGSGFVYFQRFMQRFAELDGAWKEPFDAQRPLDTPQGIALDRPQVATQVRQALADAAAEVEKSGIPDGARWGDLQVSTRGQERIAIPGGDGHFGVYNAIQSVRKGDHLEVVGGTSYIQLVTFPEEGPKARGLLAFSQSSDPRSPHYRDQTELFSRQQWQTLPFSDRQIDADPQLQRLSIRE
T1 sequence (P11940 whole entry, the tested form may be a part): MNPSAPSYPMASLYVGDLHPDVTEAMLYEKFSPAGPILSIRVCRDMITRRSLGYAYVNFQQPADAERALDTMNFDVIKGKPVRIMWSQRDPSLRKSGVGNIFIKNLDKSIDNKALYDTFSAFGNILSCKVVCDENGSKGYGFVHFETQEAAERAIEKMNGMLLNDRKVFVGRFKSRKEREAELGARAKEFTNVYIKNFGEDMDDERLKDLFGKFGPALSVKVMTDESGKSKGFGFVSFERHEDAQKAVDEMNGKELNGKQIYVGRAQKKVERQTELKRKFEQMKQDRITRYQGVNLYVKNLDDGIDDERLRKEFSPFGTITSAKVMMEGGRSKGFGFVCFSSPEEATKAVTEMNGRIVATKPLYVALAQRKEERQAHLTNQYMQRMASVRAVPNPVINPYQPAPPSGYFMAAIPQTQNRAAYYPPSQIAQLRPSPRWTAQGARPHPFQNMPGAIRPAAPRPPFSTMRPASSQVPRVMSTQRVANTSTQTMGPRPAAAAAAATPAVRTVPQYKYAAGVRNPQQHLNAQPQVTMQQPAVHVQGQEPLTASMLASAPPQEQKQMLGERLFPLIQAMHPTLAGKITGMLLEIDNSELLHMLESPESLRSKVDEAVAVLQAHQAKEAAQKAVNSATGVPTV
Sequence of Hexokinase (Q38C41 whole entry): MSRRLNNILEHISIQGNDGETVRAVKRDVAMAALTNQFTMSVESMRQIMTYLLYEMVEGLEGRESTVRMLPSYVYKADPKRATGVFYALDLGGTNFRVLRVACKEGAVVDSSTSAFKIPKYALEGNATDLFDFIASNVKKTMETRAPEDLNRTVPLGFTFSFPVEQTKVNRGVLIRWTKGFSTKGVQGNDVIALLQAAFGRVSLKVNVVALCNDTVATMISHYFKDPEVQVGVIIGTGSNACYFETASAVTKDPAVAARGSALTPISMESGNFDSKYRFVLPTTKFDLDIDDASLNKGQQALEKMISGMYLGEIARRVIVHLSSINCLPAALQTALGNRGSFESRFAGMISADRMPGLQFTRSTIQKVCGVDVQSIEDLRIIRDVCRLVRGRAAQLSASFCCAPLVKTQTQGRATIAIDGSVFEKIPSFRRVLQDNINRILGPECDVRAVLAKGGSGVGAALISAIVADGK

SMILES: COC(=O)c1ccc(OC(=O)c2ccco2)cc1
- AC50 [1]: 1.99 µM (active)

- AC50 (Cytochrome P450 3A4): 31.6 µM (inconclusive)
SMILES: CC(=O)O[C@](C)(CCC=C(C)C)C1CC=C(C)CC1 (stereo partly drawn)

SMILES: CCOC(=O)c1cc2c(ccn2C)n1CC(=O)N(Cc1ccccc1)c1ccccc1
- IC50 [2]: > 66 µM (inactive)
- IC50 (Protein Rev): > 75.4 µM (not active)
- IC50 [3]: > 66 µM (inactive)
- IC50 [4]: > 6.62 µM (active)

- IC50 [5]: > 56.8 µM (inactive)
SMILES: COc1ccccc1N1CCN(C(=O)c2cc(-c3ccco3)nc3ccccc23)CC1

SMILES: O=C(Cn1sc2ccccc2c1=O)Nc1cccc(F)c1
- IC50 (Hexokinase): 4.78 µM (active)

- IC50 [6]: > 100 µM (inactive)
SMILES: CCNS(=O)(=O)c1ccc(NC(=S)NC2CCCCC2)cc1

SMILES: COc1ccc(NC(=O)Cn2sc3ccccc3c2=O)cc1
- IC50 (Hexokinase): 5.63 µM (active)

SMILES: O=CNC1(c2ccccc2)CCCCC1
- AC50 [1]: 1.96 µM (active)

- EC50 [7]: > 100 µM (not active)
SMILES: Cc1ccc(/C=N/Nc2cccc3cccnc23)c(O)c1

- IC50 (Large T antigen): 5.62 µM (active)
- AC50 [8]: 1.65 µM (active)
SMILES: COc1cc(/C=N/NC(=O)c2cccs2)ccc1O

- IC50 [9]: 3.94 µM (active)
- IC50 [10]: 4.74 µM (active)
- IC50 [11]: 13.1 µM (active)
- IC50 [12]: > 50 µM (inactive)
SMILES: Cc1c(O)cc2c(c1O)C(=O)CC(c1ccc(O)cc1)O2 (stereo not drawn)
